From publication PMC6804107, “Separation and Lipid Inhibition Effects of a Novel Decapeptide from Chlorella pyenoidose” (Molecules, 2019)

Assays:
[1] = target: T1, porcine pancreatic lipase (PL) (Sus scrofa, UniProt P00591); assay: Pancreatic lipase inhibition, Copper soap method; assay type: biochemical; conditions: olive oil substrate, PBS pH 7.38, triplicate
T1 construct: purchased Sigma
T1 sequence (P00591 1-450): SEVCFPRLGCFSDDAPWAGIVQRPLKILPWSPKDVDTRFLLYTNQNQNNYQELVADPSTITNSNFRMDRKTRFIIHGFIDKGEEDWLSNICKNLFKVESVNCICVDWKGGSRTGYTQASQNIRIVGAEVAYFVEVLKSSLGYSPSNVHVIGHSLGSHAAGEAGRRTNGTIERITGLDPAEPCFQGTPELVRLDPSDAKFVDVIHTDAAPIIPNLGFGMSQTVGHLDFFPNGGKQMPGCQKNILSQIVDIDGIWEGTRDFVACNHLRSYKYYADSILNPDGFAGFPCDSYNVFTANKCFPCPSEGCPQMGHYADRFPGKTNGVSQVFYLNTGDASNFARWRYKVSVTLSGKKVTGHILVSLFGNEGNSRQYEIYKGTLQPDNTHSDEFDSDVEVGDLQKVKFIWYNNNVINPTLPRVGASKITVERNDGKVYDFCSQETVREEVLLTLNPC
Experimental: Copper soap method: The lipase activity assay involved a reaction medium (10 mL) containing 1 mg of olive oil, 3 mL 0.0667 mol/L, pH = 7.38 phosphate buffer saline (PBS), and 0.1 mL (C = 1 mg/mL) of lipase in the presence of 1 mL peptides with different concentrations. The peptides solution was prepared by dissolving in the working solution and was then added to reaction mixtures just before the reaction. Control lipase activity was determined without peptides. All samples were analyzed in triplicate. (1) Inhibition%=1−(Aa−A0)−(Ab−A0)/(Aa−A0)×100% where Ab refers to the absorbance value of the normal group; A0 is referred to the absorbance value of blank; and Aa is the absorbance values of the control group.

3T3-L1 adipocytes [2] = assay: Intracellular triacylglycerol in 3T3-L1 adipocytes; assay type: cell-based; conditions: for decrease of intracellular triacylglycerol accumulation: 3T3-L1 cells
Experimental: (§1) First, 3T3-L1 cells were cultured in Dulbecco’s modified Eagle’s medium (DMEM) medium containing 10% (v/v) fatal bovine serum (FBS) and 1% antibiotics in a humidified atmosphere of 5% CO2 at 37 °C. For cell toxicity assessment, 3T3-L1 cells (1 × 10^5) were seeded in a 96-well plate for 24 h. After that, the cells were incubated for 6 days in DMEM containing various concentrations (0–1.0 mg/mL) of the synthetic PP1. Cell toxicity was measured by MTT according to the instructions indicated by the manufacturer. For cell differentiation, 3T3-L1 cells were seeded in 6-well plates at a density of 2 × 10^5 cells/well. Then, the medium was changed by DMEM with insulin (5 μg/mL; Sigma), 1 μM of dexamethasone (Sigma), and 0.5 mM of 3-isobutyl-1-methylxanthine. On day 3, the medium was replaced with DMEM containing insulin (5 μg/mL; Sigma) and 10% (v/v) FBS every 3 days. Various concentrations of the synthetic PP1 were attendant during the whole process of differentiation induction. Oil Red O staining of the intracellular lipids was carried out, as described previously. Moreover, intracellular triacylglycerol levels were measured by using an Assay Triglyceride Kit. Protein concentrations were determined with BCA Protein Assay.

SREBP-1c = assay: Western blot, SREBP-1c expression; assay type: cell-based; conditions: PP1 600 μg/mL, 3T3-L1 adipocytes
Experimental: (§2) Cells were lysed in Radio Immunoprecipitation Assay (RIPA) buffer for 1 h and then centrifuged at 12,000 rpm for 25 min at 4 °C. The protein concentrations were determined by using a BCA protein assay kit. The supernatants were mixed with 4 × Sodium dodecyl sulfate (SDS) sample buffer and boiled for 10 min. The samples were run on a 4–15% SDS polyacrylamide gel and then transferred to a polyvinylidene difluoride membrane. The membrane was blocked with 5% (w/v) bovine serum albumin (BSA) for 30 min and then incubated with primary antibodies at 4 °C overnight. After washing with Tris-Buffered Saline and Tween 20 (TBST) 3 times, the membranes were washed with TBST and incubated with the secondary antibodies. Signals were detected with a scanner (Thermo Fisher Scientific, Inc.), and the fluorescence intensity was measured using Image software.

AMPKα = assay: Western blot, AMPKα expression; assay type: cell-based; conditions: PP1 600 μg/mL, 3T3-L1 adipocytes
Experimental: as §2

PPARγ = assay: Western blot, PPARγ expression; assay type: cell-based; conditions: PP1 600 μg/mL, 3T3-L1 adipocytes
Experimental: as §2

C/EBPα = assay: Western blot, C/EBPα expression; assay type: cell-based; conditions: PP1 600 μg/mL, 3T3-L1 adipocytes
Experimental: as §2

3T3-L1 adipocytes [3] = assay: Lipid accumulation / differentiation in 3T3-L1 cells (Oil Red O); assay type: cell-based
Experimental: as §1

[4] = Table 2, Alcalase hydrolysate fractions and positive drugs, mean ± SD, test concentration not given

| Compound | Inhibition of Pancreatic Lipase [1, 4] [%] | decrease of intracellular triacylglycerol accumulation (3T3-L1 adipocytes [2]; simvastatin 10 μM, positive drug) [%] | Inhibition of Pancreatic Lipase ([1]; synthetic peptide at 200 μg/mL) [%] | SREBP-1c protein level (SREBP-1c) | AMPKα protein expression (AMPKα) | decrease of intracellular triacylglycerol accumulation (3T3-L1 adipocytes [2]; PP1 600 μg/mL) [%] | intracellular triacylglycerol level (3T3-L1 adipocytes [2]; PP1 600 μg/mL during differentiation, p < 0.05, mature adipocyte (model) 82.98 ± 11.2, pre-adipocytes 25.98 ± 1.6) [nmol/mg protein] | PPARγ protein level (PPARγ) | C/EBPα protein level (C/EBPα) | differentiation inhibition (3T3-L1 adipocytes [3]; 3T3-L1 pre-adipocytes) | number of intracellular lipid droplets (3T3-L1 adipocytes [3]; Oil Red O, PP1 present during differentiation, compared with model group) |
| --- | --- | --- | --- | --- | --- | --- | --- | --- | --- | --- | --- |
| CCC(C)(C)C(=O)O[C@H]1C[C@@H](C)C=C2C=C[C@H](C)[C@H](CC[C@@H]3C[C@@H](O)CC(=O)O3)[C@H]21 [simvastatin, reference compound] | 35.2 ± 1.9 | 24.1 |  |  |  |  |  |  |  |  |  |
| CCCCCCCCCCC[C@@H](C[C@@H]1OC(=O)[C@H]1CCCCCC)OC(=O)[C@H](CC(C)C)NC=O [Orlistat] | 88.85 ± 2.42 |  |  |  |  |  |  |  |  |  |  |
| Leu-Leu-Val-Val-Try-Pro-Trp-Thr-Gln-Arg (LLVVYPWTQR) [PP1, synthetic decapeptide identified from A2 fraction of Alcalase hydrolysate] |  |  | 47.95 | decreased the levels of C/EBPα, SREBP-1c | significantly increased the expression of AMPKα | 27.9 | 59.82 ± 6.78 | decreased the levels of C/EBPα, SREBP-1c, and PPARγ | decreased the levels of C/EBPα | good differentiation inhibition activity | clearly decreased compared with that in the model group |
